Numbers after ± are expanded uncertainties.
Conditions: for mass density: Fluid (supercritical or subcritical phases), Vibrating tube method; for vapor or sublimation pressure: Liquid

C=C(C)C [2-methylpropene]
Conditions | mass density [kg/m3]
388.24 K, 14986 kPa | 509.22 ± 1.1
388.24 K, 19997 kPa | 523.66 ± 1.2
388.24 K, 25009 kPa | 535.55 ± 1.2
388.24 K, 29994 kPa | 545.71 ± 1.3
388.24 K, 35003 kPa | 554.67 ± 1.3
393.24 K, 3122 kPa | 430.77 ± 0.92
393.24 K, 4982 kPa | 451.26 ± 0.96
393.24 K, 9992 kPa | 482.81 ± 1
393.24 K, 14983 kPa | 502.79 ± 1.1
393.24 K, 20002 kPa | 518.03 ± 1.2
393.24 K, 25003 kPa | 530.42 ± 1.2
393.24 K, 29986 kPa | 540.94 ± 1.3
393.24 K, 34999 kPa | 550.22 ± 1.3
398.24 K, 3358 kPa | 417.5 ± 0.9
398.24 K, 4991 kPa | 439.31 ± 0.93
398.24 K, 10000 kPa | 474.88 ± 1
398.24 K, 15001 kPa | 496.33 ± 1.1
398.24 K, 19996 kPa | 512.31 ± 1.2
398.24 K, 24996 kPa | 525.25 ± 1.2
398.24 K, 30012 kPa | 536.21 ± 1.3
398.24 K, 35008 kPa | 545.78 ± 1.3
403.24 K, 3596 kPa | 402.69 ± 0.89
403.24 K, 4988 kPa | 426.04 ± 0.91
403.24 K, 14999 kPa | 489.7 ± 1.1
403.24 K, 19992 kPa | 506.53 ± 1.2
403.24 K, 24997 kPa | 520.05 ± 1.2
403.24 K, 30004 kPa | 531.43 ± 1.3
403.24 K, 34985 kPa | 541.26 ± 1.3
403.25 K, 9993 kPa | 466.62 ± 1
408.24 K, 3850 kPa | 386.28 ± 0.89
408.24 K, 4991 kPa | 411.13 ± 0.92
408.24 K, 14992 kPa | 482.94 ± 1.1
408.24 K, 19999 kPa | 500.74 ± 1.1
408.24 K, 24999 kPa | 514.84 ± 1.2
408.24 K, 30000 kPa | 526.63 ± 1.3
408.25 K, 9982 kPa | 458.05 ± 0.99
408.25 K, 34995 kPa | 536.8 ± 1.3
413.24 K, 4118 kPa | 367.6 ± 0.91
413.24 K, 30005 kPa | 521.83 ± 1.3
413.24 K, 35003 kPa | 532.34 ± 1.3
413.25 K, 4983 kPa | 393.59 ± 0.92
413.25 K, 9996 kPa | 449.33 ± 0.98
413.25 K, 14993 kPa | 476.09 ± 1.1
413.25 K, 19996 kPa | 494.87 ± 1.1
413.25 K, 24999 kPa | 509.59 ± 1.2
418.24 K, 4397 kPa | 346.27 ± 1.1
418.24 K, 4989 kPa | 372.46 ± 0.97
418.24 K, 14988 kPa | 469.1 ± 1
418.24 K, 19991 kPa | 488.93 ± 1.1
418.24 K, 24993 kPa | 504.3 ± 1.2
418.25 K, 9999 kPa | 440.27 ± 0.96
418.25 K, 30007 kPa | 517.01 ± 1.3
418.25 K, 34986 kPa | 527.81 ± 1.3
423.24 K, 5018 kPa | 345.72 ± 0.87
423.24 K, 19992 kPa | 482.96 ± 1.1
423.24 K, 30010 kPa | 512.18 ± 1.3
423.25 K, 9984 kPa | 430.4 ± 0.94
423.25 K, 14989 kPa | 462 ± 1
423.25 K, 25000 kPa | 499.02 ± 1.2
423.25 K, 34992 kPa | 523.34 ± 1.3
423.25 K, 39996 kPa | 533.35 ± 1.4
428.24 K, 5018 kPa | 303.01 ± 0.98
428.24 K, 24987 kPa | 493.65 ± 1.2
428.24 K, 34996 kPa | 518.85 ± 1.3
428.25 K, 9990 kPa | 420.58 ± 0.93
428.25 K, 14983 kPa | 454.76 ± 1
428.25 K, 19986 kPa | 476.9 ± 1.1
428.25 K, 30000 kPa | 507.31 ± 1.2
433.24 K, 5019 kPa | 233.56 ± 0.96
433.25 K, 9991 kPa | 410.25 ± 0.93
433.25 K, 14996 kPa | 447.46 ± 1
433.25 K, 19984 kPa | 470.79 ± 1.1
433.25 K, 24991 kPa | 488.3 ± 1.2
433.25 K, 30001 kPa | 502.44 ± 1.2
433.25 K, 34994 kPa | 514.34 ± 1.3
438.25 K, 5019 kPa | 183.56 ± 0.78
438.25 K, 9997 kPa | 399.54 ± 0.92
438.25 K, 14998 kPa | 440.02 ± 0.98
438.25 K, 19984 kPa | 464.66 ± 1.1
438.25 K, 24988 kPa | 482.93 ± 1.2
438.25 K, 30000 kPa | 497.59 ± 1.2
438.25 K, 34992 kPa | 509.86 ± 1.3
443.25 K, 5019 kPa | 159.03 ± 0.68
443.25 K, 9994 kPa | 388.26 ± 0.91
443.25 K, 14989 kPa | 432.39 ± 0.97
443.25 K, 20002 kPa | 458.54 ± 1.1
443.25 K, 24984 kPa | 477.51 ± 1.1
443.25 K, 29996 kPa | 492.7 ± 1.2
443.25 K, 34994 kPa | 505.36 ± 1.3
448.25 K, 5018 kPa | 144.08 ± 0.66
448.25 K, 9996 kPa | 376.53 ± 0.89
448.25 K, 14997 kPa | 424.77 ± 0.95
448.25 K, 19999 kPa | 452.29 ± 1.1
448.25 K, 24998 kPa | 472.14 ± 1.1
448.25 K, 29994 kPa | 487.82 ± 1.2
448.25 K, 35009 kPa | 500.91 ± 1.3
453.25 K, 5016 kPa | 133.47 ± 0.64
453.25 K, 9986 kPa | 364.19 ± 0.87
453.25 K, 14989 kPa | 416.85 ± 0.94
453.25 K, 19999 kPa | 446.01 ± 1
453.25 K, 25000 kPa | 466.69 ± 1.1
453.25 K, 29993 kPa | 482.93 ± 1.2
453.25 K, 35004 kPa | 496.39 ± 1.3

Conditions | vapor or sublimation pressure [kPa]
393.36 K | 2656.5 ± 9.8
399.86 K | 2967.1 ± 11
412.88 K | 3665.8 ± 13
